# Tests used:
# [1] = test system: Fully MHC-mismatched tail skin allografts in mice; test: Skin transplantation model; type: in vivo, mouse
# Source text: More importantly, in transplantation nTregs promote allograft survival while Th17 cells enhance allograft rejection^44-45. Thus, to study, in vivo, the impact of NAD^+ on nTregs and Th17 cells a transplant mouse model was used. Fully MHC-mismatched C57BL/6 (H2^b) tail skin allografts were transplanted onto DBA/2 (H2^d) mice that received daily intraperitoneally a solution containing NAD^+ or a placebo solution (PBS) and graft survival was monitored. […] Therefore, NAD^+ treatment was expected to promote allograft rejection. […] Recipient mice were evaluated by day 8 and the frequency of nTregs CD4^+CD25^+Foxp3^+ and CD4^+IL17-A^+ cells was assessed (FIG. 14B). […] Next, mechanisms by which NAD^+ could promote nTreg conversion into Th17 cells and allograft survival at the same time, e.g., two paradoxes, were assessed. Strikingly, when compared to the control group, more than 60% of CD4^+ T cells of NAD^+ treated mice were IL-10^+ producing cells (FIG. 14B). It is known that IL-10 is a robust immunosuppressive cytokine^46. Therefore, it was tested whether the allograft survival observed in recipient mice treated with NAD^| was the results of a systemic increase of IL-10 production. Thus, WT and IL-10^−/− mice (on a C57BL6/ background) received a BDA skin transplant and were treated with NAD^|.
# Full-thickness tail skin grafts (˜1 cm^2) were procured from C57BL/6 mice and engrafted onto the dorsolateral thoracic wall of DBA/2 recipient mice using interrupted 5-0 Vicryl sutures. NAD^+ (100 μl of a solution containing 10 mg in PBS), or PBS (100 μl) were injected intraperitoneally and grafts were covered with gauze and adhesive bandage for 5 days. Graft survival was then monitored daily and rejection was defined as graft necrosis of 100%. Two investigators blinded for the particular experimental groups assessed graft survival independently. Eight days after transplantation, single-cell leukocyte suspensions were obtained from spleens procured from recipient mice to perform re-stimulation (with PMA and Ionomycin for 2hrs) and staining for surface and intracellular antigens as described above.
# [2] = test system: naïve CD4+ T cells; test: Naïve CD4+ T cell differentiation under Th1 polarizing conditions (ELISA, flow cytometry); type: cell-based, mouse
# Experimental: The inventors next investigated whether NAD^− regulates CD4^+ T cell differentiation in Th1 polarizing conditions. Isolated naïve CD4^+ T cells were cultured with anti-CD3/CD28 antibodies in presence of recombinant IL-12 and IL-2 cytokines and anti-IL4 antibody. […] In contrast to Th0 polarizing conditions, NAD^+ induced a robust IL-10 secretion (>3500 pg/ml) in Th1 cytokine environment (FIG. 1A). Furthermore, pro-inflammatory cytokines such as TNF-α and IL-6 were reduced by NAD^+ (FIG. 7C). […] Furthermore, the study tested whether NAD^+ promoted the shift of human CD4^+ T helper cells in Th1 polarizing conditions towards IL-10 cytokine production. Human peripheral blood CD4^| T cells were activated with anti-CD3/CD28 antibodies under Th1 polarizing conditions (recombinant IL-12 and IL-2 cytokines and anti-IL4 antibody) with increasing concentrations of NAD+. After 96 hours of culture, CD4^+IL-10^+IFNγ^+ cell frequency was assessed by flow cytometry analysis.
# Single-cell leukocyte suspensions were obtained from spleens from 8-10 week old DBA mice and CD4^− T cells were isolated by negative selection using a CD4^+ T cell isolation kit (MILTENYI BIOTEC, Bergisch Gladbach, Germany). Cells were further sorted using α-CD4-PE (EBIOSCIENCE, San Diego, Calif.) and purities of CD4^+ T cells after isolation were >98%.
# All recombinant cytokines and antibodies were purchased from EBIOSCIENCE except recombinant TGF-β cytokine (R&D SYSTEMS, Minneapolis, Minn.). After 96 hrs of culture supernatants and cells were collected and analyzed by ELISA and flow cytometry, respectively.
# Fluorescently labeled anti-mouse α-CD4 (GK1.5), α-CD25 (PC61), α-IFN-γ (XMG1.2) and unlabeled α-CD16/CD32 (2.4G2) antibodies were obtained from BD BIOSCIENCES (San Jose, Calif.). Fluorescently labeled anti-mouse α-IL-4 (FJK-16s), α-IL-10 (JES5-16E3), α-IL-17A (eBio17B7), and anti-TGFβ (TW7-16B4) were obtained from eBIOSCIENCE (San Diego, Calif.). Intracellular staining for IL-4, IL-10, IL-17A, IFNγ and TGFβ was performed according to manufacturers' protocols. Splenocytes were re-stimulated in complete media (RPMI media containing 10% FCS, 1% L-Glutamine, 1% Penicillin/Streptomycin; all Bio Whittaker, Walkersville, Md.) for 4 hours at 37° C. with ionomycin, phorbol 12-myristate 13-acetate and Brefelding A (EBIOSCIENCE). Cells were fixed and permeabilized using CYTOFIX/CYTOPERM solution (BD BIOSCIENCES). Flow cytometry measurements of single-cell suspensions were performed on a FACSCalibur using standard procedures and data were analyzed using FLOWJO software (TREE STAR, Ashland, Oreg.).
# [3] = test system: C57Bl/6 mice, OVA-induced allergy; test: Allergic mouse model (ovalbumin); type: in vivo
# Experimental: FIGS. 20A-20C depicts data from an experiment where allergy was induced in mice (C57B1/6) with intraperitoneal injections of OVA at day 1, 7, 14 and 21. Mice were treated with OVA or a placebo solution (PBS). […] NAD+ can therefore be used in chronic inflammation and allergy such as chronic obstructive pulmonary disease and atopic disorders.
# The top panel of the figure is a schematic depicting the experimental protocol.
# It is understood in a clinical setting that immunosuppressants are unable to specifically target activated/memory CD4+ T cells. Thus, the inventors next investigated the specificity of NAD+ using an allergic mouse model consisting of several intraperitoneal (i.p.) injections of ovalbumin (OVA) with Alumn. As a control, a group of mice received a placebo solution (PBS). In addition, to assess the specific effect of NAD+ on CD4+CD44^highCD62L^high activated/memory T cells, a group of mice received OVA followed by NAD+ injection.
# [4] = recipient spleen, day 8, NAD+ vs placebo
# [5] = OVA i.p. day 1, 7, 14 and 21, with NAD+
smiles,measurement,setting,value
"NC(=O)c1ccc[n+]([C@@H]2O[C@H](COP(=O)([O-])OP(=O)(O)OC[C@H]3O[C@@H](n4cnc5c(N)ncnc54)[C@H](O)[C@@H]3O)[C@@H](O)[C@H]2O)c1 [NAD+, nicotinamide adenine dinucleotide]",visual sign of rejection,"[1]; 13 days after transplantation, daily NAD+",no visual sign of rejection
same,allografts survived more than 18 days,"[1]; C57BL/6 skin onto DBA/2 mice, daily i.p. NAD+",66%
same,skin allograft survival,"[1]; C57BL/6 skin onto DBA/2 mice, daily i.p. NAD+ vs control group",dramatic allograft survival
same,skin allograft survival in IL-10−/− mice,"[1]; DBA skin onto IL-10−/− mice (C57BL/6 background), NAD+ treatment",abolished the allograft survival
same,frequencies of CD4+IL-17A+ cells,[1]; [4],increased frequencies
same,frequency of CD4+CD25+Foxp3+ nTregs,[1]; [4],reduced frequency
same,IFN-γ cytokine production,"[2]; 96 hrs, ELISA",did not change
same,IL-6 production,"[2]; 96 hrs, ELISA",reduced
same,IL-10 secretion,"[2]; 96 hrs, ELISA",> 3500 pg/mL
same,IL-17A cytokine production,"[2]; 96 hrs, ELISA",400 pg/mL
same,TNF-α production,"[2]; 96 hrs, ELISA",reduced
same,IL-10 production by Th1-IFN-γ producing cells,[2]; flow cytometry,promoted
same,frequency of CD4+IFN-γ cells,[2]; flow cytometry,increased frequencies
same,frequency of CD4+IL17A+ cells,[2]; flow cytometry,increased frequencies
same,frequency of CD4+IL-10+ cells,[2]; flow cytometry,increased frequencies
same,CD4+CD44highCD62Lhigh activated/memory T cell frequency,"[3]; OVA followed by NAD+ injection, after 21 days",targets specifically
same,frequencies of effector T cells induced by the antigen,[3]; [5],reduces specifically
same,frequencies of mature B cells induced by the antigen,[3]; [5],reduces specifically
